# Assay results: patent US10934274B2, “Quinoline derivatives as TAM RTK inhibitors” (Qurient Co., Ltd., priority 2015, dated 2021)
# Tests used:
# [1] = target: T1, TYRO3 (Homo sapiens, UniProt Q06418); assay: LanthaScreen Eu kinase binding assay, TYRO3; settings: Tracer 236
# T1 construct: purchased Life Technologies
# T1 sequence (Q06418 41-890): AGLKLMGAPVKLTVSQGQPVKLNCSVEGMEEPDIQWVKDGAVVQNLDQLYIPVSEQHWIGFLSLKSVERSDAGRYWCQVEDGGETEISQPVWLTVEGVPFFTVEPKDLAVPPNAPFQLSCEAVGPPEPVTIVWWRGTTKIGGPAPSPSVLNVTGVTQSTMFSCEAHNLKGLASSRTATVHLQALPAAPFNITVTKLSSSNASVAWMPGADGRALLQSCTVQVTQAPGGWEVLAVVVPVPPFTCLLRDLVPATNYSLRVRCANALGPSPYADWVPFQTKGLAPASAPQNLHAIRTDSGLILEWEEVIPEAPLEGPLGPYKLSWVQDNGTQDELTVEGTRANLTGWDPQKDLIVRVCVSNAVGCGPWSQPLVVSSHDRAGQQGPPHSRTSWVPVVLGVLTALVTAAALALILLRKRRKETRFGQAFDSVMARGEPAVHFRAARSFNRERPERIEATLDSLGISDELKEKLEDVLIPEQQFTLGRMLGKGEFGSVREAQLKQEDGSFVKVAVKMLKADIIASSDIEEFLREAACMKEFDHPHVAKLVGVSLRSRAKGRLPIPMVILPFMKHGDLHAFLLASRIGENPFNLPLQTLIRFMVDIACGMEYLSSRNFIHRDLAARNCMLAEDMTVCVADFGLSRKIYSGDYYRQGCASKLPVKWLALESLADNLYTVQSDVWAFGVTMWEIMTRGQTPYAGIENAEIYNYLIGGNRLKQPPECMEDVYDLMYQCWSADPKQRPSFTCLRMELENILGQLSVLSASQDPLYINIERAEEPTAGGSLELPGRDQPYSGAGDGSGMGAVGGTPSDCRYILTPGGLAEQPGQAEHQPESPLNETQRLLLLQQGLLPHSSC
# [2] = target: T2, Met (Homo sapiens, UniProt P08581); assay: LanthaScreen Eu kinase binding assay, Met; settings: Tracer 236, read-out: cMet kinase binding activity (Kd)
# T2 construct: purchased Life Technologies
# [3] = test system: Axl phosphorylation in transiently transfected HEK293T cells; assay: Cellular Axl phosphorylation assay; type: cell-based; settings: Homo sapiens, HEK-293T; HEK293T cells transfected with Axl, 1 hour compound treatment, Phospho-Axl vs Total-Axl
# Outline: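 Axl-RTK was overexpressed by transfection in HEK293T cells to drive trans-autophosphorylation; cells were exposed to test compound for 1 hour. Phospho-Axl and total Axl were captured in lysates and detected by MSD electrochemiluminescence. IC50 was set between the DMSO group and the empty-vector-transfected minimum.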
# T2 sequence (P08581 25-1390): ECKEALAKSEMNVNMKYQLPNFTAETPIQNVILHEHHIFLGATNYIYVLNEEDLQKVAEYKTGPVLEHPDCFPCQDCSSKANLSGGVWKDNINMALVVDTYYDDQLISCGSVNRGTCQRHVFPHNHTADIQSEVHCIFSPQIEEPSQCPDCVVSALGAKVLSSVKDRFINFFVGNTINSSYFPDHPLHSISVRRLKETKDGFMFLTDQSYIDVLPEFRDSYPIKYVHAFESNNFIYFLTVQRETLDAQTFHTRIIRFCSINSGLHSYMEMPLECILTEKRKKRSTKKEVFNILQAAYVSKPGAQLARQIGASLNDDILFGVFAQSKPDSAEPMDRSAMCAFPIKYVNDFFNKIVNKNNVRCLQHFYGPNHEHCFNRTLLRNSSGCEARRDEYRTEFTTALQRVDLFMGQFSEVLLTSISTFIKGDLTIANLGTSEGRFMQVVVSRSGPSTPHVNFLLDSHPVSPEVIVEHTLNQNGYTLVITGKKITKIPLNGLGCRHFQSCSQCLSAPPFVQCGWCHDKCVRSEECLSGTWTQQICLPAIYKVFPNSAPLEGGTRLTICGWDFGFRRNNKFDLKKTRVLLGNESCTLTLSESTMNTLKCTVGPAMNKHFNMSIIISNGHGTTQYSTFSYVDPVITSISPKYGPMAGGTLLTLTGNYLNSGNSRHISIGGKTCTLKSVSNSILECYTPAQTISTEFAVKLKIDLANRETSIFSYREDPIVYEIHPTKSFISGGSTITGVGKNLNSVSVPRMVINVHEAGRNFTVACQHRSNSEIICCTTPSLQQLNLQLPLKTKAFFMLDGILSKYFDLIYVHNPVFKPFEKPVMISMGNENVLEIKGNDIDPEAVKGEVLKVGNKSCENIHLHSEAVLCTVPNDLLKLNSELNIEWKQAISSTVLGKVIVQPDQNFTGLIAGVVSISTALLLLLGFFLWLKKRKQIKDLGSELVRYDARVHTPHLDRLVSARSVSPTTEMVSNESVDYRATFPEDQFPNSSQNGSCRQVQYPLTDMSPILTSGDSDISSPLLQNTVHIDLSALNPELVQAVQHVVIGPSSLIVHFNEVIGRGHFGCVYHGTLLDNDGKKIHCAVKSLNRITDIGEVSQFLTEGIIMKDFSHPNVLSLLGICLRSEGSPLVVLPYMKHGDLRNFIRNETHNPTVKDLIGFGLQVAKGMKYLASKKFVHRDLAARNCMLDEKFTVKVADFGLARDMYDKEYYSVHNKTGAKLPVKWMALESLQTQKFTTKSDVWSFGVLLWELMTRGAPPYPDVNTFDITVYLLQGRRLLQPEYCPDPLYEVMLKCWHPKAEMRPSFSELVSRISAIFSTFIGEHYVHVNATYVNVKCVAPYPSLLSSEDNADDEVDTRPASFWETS
Kd [1] [nM],Kd [2] [nM],Structure (SMILES),IC50 [3] [nM]
100 to 1000,< 100,CCOc1cn(-c2ccccn2)nc1C(=O)Nc1ccc(Oc2ccnc3cc(OC)c(OC)cc23)cn1 [Compound 4],< 100
< 100,< 100,CCOc1cn(-c2cccnn2)nc1C(=O)Nc1ccc(Oc2ccnc3cc(OC)c(OC)cc23)cn1 [Compound 5],< 100
< 100,< 100,CCOc1cn(-c2cnccc2C)nc1C(=O)Nc1ccc(Oc2ccnc3cc(OC)c(OC)cc23)cn1 [Compound 79],< 100
100 to 1000,< 100,CCOc1cn(-c2ncc(N)cn2)nc1C(=O)Nc1ccc(Oc2ccnc3cc(OC)c(OC)cc23)cn1 [Compound 93],< 100

# Continued, molecule first:
Structure (SMILES),Kd [1] [nM],Kd [2] [nM],IC50 [3] [nM]
CCOc1cn(C2CCCC2)nc1C(=O)Nc1ccc(Oc2ccnc3cc(OC)c(OC)cc23)cn1 [Compound 3],< 100,< 100,< 100
CCOc1cn(C2CCOC2)nc1C(=O)Nc1ccc(Oc2ccnc3cc(OC)c(OC)cc23)cn1 (stereo not drawn) [Compound 76],< 100,100 to 1000,< 100
CCOc1cn(CCC#N)nc1C(=O)Nc1ccc(Oc2ccnc3cc(OC)c(OC)cc23)cn1 [Compound 80],100 to 1000,100 to 1000,< 100
CCOc1cn(C(C)CC#N)nc1C(=O)Nc1ccc(Oc2ccnc3cc(OC)c(OC)cc23)cn1 (stereo not drawn) [Compound 81],100 to 1000,100 to 1000,< 100
CCOc1cn(-c2ccc(F)cc2C)nc1C(=O)Nc1ccc(Oc2ccnc3cc(OC)c(OC)cc23)c(Cl)c1 [Compound 82],< 100,< 100,< 100
CCOc1cn(-c2cccnc2)nc1C(=O)Nc1ccc(Oc2ccnc3cc(OC)c(OC)cc23)cc1F [Compound 85],100 to 1000,< 100,< 100
CCOc1cn(CCOC(F)F)nc1C(=O)Nc1ccc(Oc2ccnc3cc(OC)c(OC)cc23)cn1 [Compound 86],100 to 1000,< 100,< 100
CCOc1cn(-c2ccc(Cl)cc2C)nc1C(=O)Nc1ccc(Oc2ccnc3cc(OC)c(OC)cc23)cn1 [Compound 87],< 100,< 100,< 100
CCOc1cn(-c2ccc(F)cc2)nc1C(=O)Nc1ccc(Oc2ccnc3cc(OC)c(OC)cc23)cn1 [Compound 89],< 100,< 100,< 100
CCOc1cn(-c2c(C)cc(OC)cc2C)nc1C(=O)Nc1ccc(Oc2ccnc3cc(OC)c(OC)cc23)cn1 [Compound 92],< 100,< 100,< 100
